Our source for the inhibition and IC50 values is US10093630B2, “Pyrazole compounds and methods of making and using same” (ABIDE THERAPEUTICS, INC., priority 2014, dated 2018).

Like-named read-outs stand apart in the source and are kept apart here.

Holding throughout (test): In vitro competitive activity-based protein profiling (gel-based, FP-Rh or HT-01 probe)
Common to all, as to assay type: biochemical

One experiment deals with T1, FAAH (Mus musculus, UniProt O08914).
T1 construct: Proteomes (mouse brain membrane fraction or cell lysates); from tissue; host or cells: mouse brain membrane fraction (or cell lysates, not specified)
T1 sequence (O08914 1-579): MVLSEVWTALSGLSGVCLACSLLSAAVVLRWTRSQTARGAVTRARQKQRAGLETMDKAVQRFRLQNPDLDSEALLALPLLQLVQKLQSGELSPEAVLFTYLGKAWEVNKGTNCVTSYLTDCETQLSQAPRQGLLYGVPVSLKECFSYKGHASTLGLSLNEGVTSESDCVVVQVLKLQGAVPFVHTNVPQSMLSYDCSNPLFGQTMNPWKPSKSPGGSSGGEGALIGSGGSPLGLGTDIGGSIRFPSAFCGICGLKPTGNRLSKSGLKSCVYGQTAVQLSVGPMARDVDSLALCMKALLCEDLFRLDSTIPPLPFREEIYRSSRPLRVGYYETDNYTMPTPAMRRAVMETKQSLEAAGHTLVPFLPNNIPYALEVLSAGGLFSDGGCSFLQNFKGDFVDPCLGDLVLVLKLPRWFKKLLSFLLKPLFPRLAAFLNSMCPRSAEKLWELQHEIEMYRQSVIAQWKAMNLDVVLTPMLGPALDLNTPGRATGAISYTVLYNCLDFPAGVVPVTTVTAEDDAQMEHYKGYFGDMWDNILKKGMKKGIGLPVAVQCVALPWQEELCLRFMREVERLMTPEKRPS
To be noted: for inhibition at 1 µM: 1 μM inhibitor, read-out: % Inhibition at 1 μM, B = FAAH; for inhibition at 10 µM: 10 μM inhibitor, read-out: % Inhibition at 10 μM, B = FAAH; for IC50: mouse brain membrane fraction or cell lysates, 30 min preincubation at 37° C., read-out: Mouse (IC50 value, nM) FAAH. In a few lines: (§1)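 Read-out: fluorescent band intensity on SDS-PAGE gels, reporting remaining serine hydrolase activity. Before that, proteome (mouse brain membranes or cell lysates, 1.0 mg/mL) saw a range of inhibitor concentrations for 30 min at 37° C, followed by 30 min probe labelling (FP-Rh or HT-01).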

The target in a further experiment is T2, MAGL (Mus musculus, UniProt O35678).
T2 construct: Proteomes (mouse brain membrane fraction or cell lysates); from tissue; host or cells: mouse brain membrane fraction (or cell lysates, not specified)
T2 sequence (O35678 1-303): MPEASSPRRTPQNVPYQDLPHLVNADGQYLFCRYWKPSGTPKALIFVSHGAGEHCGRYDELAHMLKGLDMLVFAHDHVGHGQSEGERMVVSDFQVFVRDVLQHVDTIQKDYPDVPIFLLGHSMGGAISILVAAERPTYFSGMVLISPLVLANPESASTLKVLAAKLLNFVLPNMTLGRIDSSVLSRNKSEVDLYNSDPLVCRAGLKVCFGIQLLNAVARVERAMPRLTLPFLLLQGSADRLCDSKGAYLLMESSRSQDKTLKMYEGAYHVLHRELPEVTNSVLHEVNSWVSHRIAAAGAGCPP
To be noted: for inhibition at 1 µM: 1 μM inhibitor; for inhibition at 10 µM: 10 μM inhibitor; for IC50: mouse brain membrane fraction or cell lysates, 30 min preincubation at 37° C., read-out: Mouse (IC50 value, nM) MAGL. In a few lines:
as §1

Another experiment deals with T3, PLA2G7 (Mus musculus, UniProt Q60963).
T3 construct: Proteomes (mouse brain membrane fraction or cell lysates); from tissue; host or cells: mouse brain membrane fraction (or cell lysates, not specified)
T3 sequence (Q60963 22-440): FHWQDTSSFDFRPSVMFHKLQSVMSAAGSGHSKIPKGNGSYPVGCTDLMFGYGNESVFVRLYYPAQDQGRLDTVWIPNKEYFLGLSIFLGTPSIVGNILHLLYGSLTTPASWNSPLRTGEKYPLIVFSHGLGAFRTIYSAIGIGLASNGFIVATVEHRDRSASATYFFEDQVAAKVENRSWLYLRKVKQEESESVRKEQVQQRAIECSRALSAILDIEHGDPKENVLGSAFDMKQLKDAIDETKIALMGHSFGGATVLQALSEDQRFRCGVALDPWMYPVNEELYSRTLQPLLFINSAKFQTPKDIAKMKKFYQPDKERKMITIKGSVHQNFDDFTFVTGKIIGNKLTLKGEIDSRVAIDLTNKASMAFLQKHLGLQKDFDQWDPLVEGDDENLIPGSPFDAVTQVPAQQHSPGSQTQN
The settings on record: for inhibition at 1 µM: 1 μM inhibitor, read-out: % Inhibition at 1 μM, D = PLA2G7; for inhibition at 10 µM: 10 μM inhibitor, read-out: % Inhibition at 10 μM, D = PLA2G7; for IC50: mouse brain membrane fraction or cell lysates, 30 min preincubation at 37° C. The essentials:
as §1

The target of the next experiment is T4, ABHD6 (Mus musculus, UniProt Q8R2Y0).
T4 construct: Proteomes (mouse brain membrane fraction or cell lysates); from tissue; host or cells: mouse brain membrane fraction (or cell lysates, not specified)
T4 sequence (Q8R2Y0 1-336): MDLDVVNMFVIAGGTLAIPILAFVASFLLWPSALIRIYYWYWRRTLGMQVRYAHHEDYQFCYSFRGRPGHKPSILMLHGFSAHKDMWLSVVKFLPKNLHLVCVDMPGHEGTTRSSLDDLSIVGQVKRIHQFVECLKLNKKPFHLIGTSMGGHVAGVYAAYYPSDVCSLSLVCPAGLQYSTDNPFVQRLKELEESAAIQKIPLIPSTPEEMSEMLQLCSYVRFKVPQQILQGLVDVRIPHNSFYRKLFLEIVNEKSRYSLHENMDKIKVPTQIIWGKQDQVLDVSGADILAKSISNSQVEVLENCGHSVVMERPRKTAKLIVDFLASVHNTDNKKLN
To be noted: for inhibition at 1 µM: 1 μM inhibitor, read-out: % Inhibition at 1 μM, C = ABHD6; for inhibition at 10 µM: 10 μM inhibitor, read-out: % Inhibition at 10 μM, C = ABHD6; for IC50: mouse brain membrane fraction or cell lysates, 30 min preincubation at 37° C., read-out: Mouse (IC50 value, nM) ABHD6. The essentials: as §1

Turning to `O=C(N1CCN(Cc2ccc(C(F)(F)F)cc2)CC1)n1cc(Cl)cn1` [Example 213, (4-Chloro-1H-pyrazol-1-yl)(4-(4-(trifluoromethyl)benzyl)piperazin-1-yl)methanone], the inhibition (in general, how much of the control response was suppressed) at 1 µM on FAAH was greater than 75%; at MAGL it was greater than 75%; on PLA2G7, less than 25%; on ABHD6, greater than 75%. The inhibition at 10 µM at FAAH, on MAGL, at PLA2G7 and on ABHD6 was greater than 75% throughout. Further, the IC50 (usually the point on the concentration scale where inhibition reaches its midpoint) on FAAH was less than 100 nM; at MAGL, less than 100 nM; on PLA2G7 it was 100 to 1000 nM; on ABHD6 it was less than 100 nM.
For `Cc1cnn(C(=O)N2CCN(Cc3ccc(-c4ccccc4)cc3)CC2)c1` [Example 23, (4-([1,1′-Biphenyl]-4-ylmethyl)piperazin-1-yl)(4-methyl-1H-pyrazol-1-yl)methanone], the inhibition at 1 µM was less than 25% on FAAH, greater than 75% on MAGL, less than 25% at PLA2G7 and 25 to 75% on ABHD6. Moreover, the inhibition at 10 µM was 25 to 75% on FAAH, greater than 75% on MAGL, greater than 75% at PLA2G7 and greater than 75% on ABHD6.
Take `N#Cc1cnn(C(=O)N2CCN(c3ccccc3)CC2)c1` [Example 206, 1-(4-Phenylpiperazine-1-carbonyl)-1H-pyrazole-4-carbonitrile]: the inhibition at 1 µM on FAAH, at MAGL, on PLA2G7 and at ABHD6 was greater than 75% throughout. Besides, the inhibition at 10 µM on FAAH, on MAGL, on PLA2G7 and on ABHD6 was greater than 75% in each case.
Regarding `O=C(N1CCN(Cc2cccnc2)CC1)n1cc(-c2ccccc2)cn1` [Example 60, (4-Phenyl-1H-pyrazol-1-yl)(4-(pyridin-3-ylmethyl)piperazin-1-yl)methanone], the inhibition at 10 µM at FAAH is greater than 75%; at MAGL, 25 to 75%; at PLA2G7, greater than 75%; at ABHD6, greater than 75%. Further, the inhibition at 1 µM at PLA2G7 and at ABHD6 was greater than 75% throughout. Also, the concentration for half-maximal inhibition (IC50) at ABHD6 is 100 to 1000 nM.
Consider `Cc1cnn(C(=O)N2CCN(Cc3cccc(Oc4ccccc4)c3)CC2)c1` [Example 294, (4-Methyl-1H-pyrazol-1-yl)(4-(3-phenoxybenzyl)piperazin-1-yl)methanone], for which the inhibition at 1 µM was greater than 75% on FAAH (gel-based competitive ABPP), greater than 75% on MAGL (gel-based competitive ABPP), less than 25% on PLA2G7 (gel-based competitive ABPP) and greater than 75% on ABHD6 (gel-based competitive ABPP).
Regarding `N#Cc1cnn(C(=O)N2CCCN(C(=O)c3ccccc3)CC2)c1` [Example 180, 1-(4-Benzoyl-1,4-diazepane-1-carbonyl)-1H-pyrazole-4-carbonitrile], the inhibition at 1 µM at FAAH was greater than 75%; at MAGL, greater than 75%; at PLA2G7, less than 25%; at ABHD6 it was greater than 75%. Also, the inhibition at 10 µM at FAAH, at MAGL, on PLA2G7 and at ABHD6 was greater than 75% throughout. Also, the IC50 at FAAH is 100 to 1000 nM; at MAGL, 100 to 1000 nM; at PLA2G7, greater than 1000 nM; on ABHD6, greater than 1000 nM.
Take `CC(=O)N1CCCN(C(=O)n2cc(C)cn2)CC1` [Example 165, 1-(4-(4-Methyl-1H-pyrazole-1-carbonyl)-1,4-diazepan-1-yl)ethanone]: the inhibition at 10 µM at FAAH is 25 to 75%; on MAGL, less than 25%; at PLA2G7 it was less than 25%; at ABHD6 it was less than 25%.
Regarding `CC(C)(C)OC(=O)N1CCCN(C(=O)n2cccn2)CC1` [Example 25, tert-Butyl 4-(1H-pyrazole-1-carbonyl)-1,4-diazepane-1-carboxylate], the inhibition at 1 µM on FAAH, on MAGL, at PLA2G7 and at ABHD6 was less than 25% each time. Also, the inhibition at 10 µM at FAAH was less than 25%; on MAGL, less than 25%; at PLA2G7, less than 25%; on ABHD6, 25 to 75%.
Take `N#Cc1cnn(C(=O)N2CCN(Cc3ccc(-c4ccccc4)cc3)CC2)c1` [Example 24, 1-(4-([1,1′-Biphenyl]-4-ylmethyl)piperazine-1-carbonyl)-1H-pyrazole-4-carbonitrile]: the inhibition at 1 µM on FAAH, on MAGL, at PLA2G7 and on ABHD6 was greater than 75% each time. Besides, the inhibition at 10 µM on FAAH, at MAGL, on PLA2G7 and at ABHD6 was greater than 75% throughout.
With `CCN(Cc1cccc(N2CCOCC2)c1)C(=O)n1cc(C#N)cn1` [Example 242, 4-Cyano-N-ethyl-N-(3-morpholinobenzyl)-1H-pyrazole-1-carboxamide], the inhibition at 1 µM at FAAH is greater than 75%; on MAGL, greater than 75%; at PLA2G7, less than 25%; on ABHD6, 25 to 75%.
As for `O=C(N1CCN(CC2CC2)CC1)n1cc(Cl)cn1` [Example 215, (4-Chloro-1H-pyrazol-1-yl)(4-(cyclopropylmethyl)piperazin-1-yl)methanone], the inhibition at 1 µM at FAAH was greater than 75%; on MAGL, 25 to 75%; at PLA2G7, less than 25%; at ABHD6 it was greater than 75%. For the same molecule, the inhibition at 10 µM at FAAH, at MAGL, at PLA2G7 and on ABHD6 was greater than 75% each time.
